Experimental data as given in patent US20080294071A1, “Assay Method” (priority 2004, published 2008).

What was measured:
[1] = clinical literature; cited from earlier work
rats [2] = experiment: Locomotor activity test; type: in vivo, Male Sprague Dawley rats
Procedure: (§1) Male Sprague Dawley rats 200-300 g (Charles River, Margate, U.K.) were housed in group of five per cage under a 12 h light/dark cycle with food and water available ad libitum. Each experiment was carried out with groups of at minimum 7 rats. All procedures in this study were performed in accordance with the Home Office Animals (Scientific Procedures) Act 1986 and accordingly with our Project License, after the experiment, animals were sacrificed by schedule 1 method.
The spontaneous locomotor activity of rats in a novel environment was monitored for 30 min in a 35×20 cm Perspex chamber. The cage was equipped with two series photocells located at 2 and 15 cm above the floor (San Diego Instruments, CA, USA). To measure drug-induced decrease locomotion such as morphine and gabapentin, at a pre-defined time post drug administration, each animal was placed in the centre of the cage. To measure drug-induced increase in locomotion such as phencyclidine (PCP) rats were placed in the cage at least 30 min before recording. total activity (ambulation and rearing) was monitored every 5 min for 30 min.
(§2) In the locomotor activity task, total counts are the sum of horizontal and vertical movements (photo beam breaks) in 30 minutes recording. For PCP vertical and horizontal activity are analysed separately. Data were expressed as the arithmetic mean ±SEM and analysed by ANOVA. In the beam walking test, the time to cross the beam (seconds) and the number of foot slips were expressed as mean ±SEM and analysed by ANOVA and Mann Whitney U test, respectively.

rats [3] = experiment: Beam walking test; type: in vivo, Male Sprague Dawley rats
Procedure: as §1
The Beam walking apparatus consists of a 1.5 m long beam with a 2.5×2.5 cm square cross section, elevated 75 cm above the floor. The test was performed in dim light conditions (18 lux). A light source (520 lux) was placed at the start-end of the beam while a dark box at the other side (Feeney D M et al, Amphetamine, Haloperidol, and experience interact to affect rate of recovery after motor cortex injury, Science 217, 1982). Rats were habituated to the dim light condition for at least 1 hour before the beginning of the training sessions. Rats were trained to cross the beam over 2 days, twice a day. The first day, rodents were trained to cross starting from last quarter and half of the beam until the dark box, in the first and second session, respectively. The following day rodents were trained to cross the entire length of the beam twice. At least 2 hours were left between each daily session. On the day of test a baseline recording was registered before compound administration and rats were selected based on their ability to cross the beam with no major impairments. Therefore, only rodents that crossed the beam in less than 10 seconds and showing two or less foot slips were used for the assessment of drug-induced motor impairments. Then rats were tested for their ability to cross the beam at various time points after drug injection. The time taken to cross and the number of foot slips produced while a rat was crossing the beam were counted. […] No movement or freezing behaviours were also scored with the maximum value.
as §2

[4] = 1 and 10 mg/kg ip, 1 hr post injection

For `CN1CC[C@]23c4c5ccc(O)c4O[C@H]2[C@@H](O)C=C[C@H]3[C@H]1C5.O=S(=O)(O)O` [Morphine sulphate], the “adverse events in humans” value [1] is listed as “somnolence, sedation and addiction”, the “total counts (horizontal + vertical) in 30 min” value (rats [2]; 10 mg/kg SC, 30 min post dose, vehicle 424±23, p<0.01) is listed as 28±6 counts and the “total counts in 30 min” value (rats [2]; morphine 3 mg/kg, comparator in gabapentin study) is listed as 138±26 counts. For the same molecule, the “locomotion in the beam walking” value (rats [3]; 3 mg/kg SC, any time point (30 min, 1, 2, 3 h)) was “did not modify the locomotion”, the “time to cross the beam” value (rats [3]; 10 mg/kg SC, 30 min post dose, controls 4.1±0.7, significant) was 12.6 ± 0.7 s and the “number of foot slips” value (rats [3]; 10 mg/kg SC, 30 minutes post dose, vehicle 0.1±0.1, not statistically different) was 1.0±0.6. The “number of foot slips” value (rats [3]; 10 mg/kg SC, 1 hr post dose, vehicle 0.1±0.1, not statistically different) was 1.0±0.6, the “rats falling off the beam” value (rats [3]; 3 and 10 mg/kg SC) was “No rats fell off the beam” and the “MED (minimal effective dose) in beam walking” value (rats [3]; SC) was 10 mg/kg.
In the case of `NCC1(CC(=O)O)CCCCC1` [Gabapentin], the “adverse events in humans” value [1] is given as “dizziness and somnolence”, the “decrease in locomotor activity (of vehicle-treated group)” value (rats [2]; 100 mg/kg PO (highest dose), one hour post dose) is given as 27% and the “locomotor activity, effect” value (rats [2]; 100 mg/kg in rats) is given as “small (albeit statistically significant) decrease”. For the same molecule, the “locomotor activity, effect across doses” value (rats [2]; 10, 30 and 100 mg/kg PO, one hour post dose) was “decreased significantly the locomotor activity of rats at the highest dose only”, the “total counts in 30 min” value (rats [2]; gabapentin highest dose 100 mg/kg PO, one hour post dose) was 262±25 counts and the “number of foot slips, effect” value (rats [3]; 100 mg/kg in rats) was “robust increase”. The “time to cross the beam, effect” value (rats [3]; 30, 100 and 300 mg/kg PO, up to 6 hrs, p<0.05) was “only at 3 and 4 hour post administration the highest dose significantly increase the time to cross”, the “duration of effect on foot slips (lasting till)” value (rats [3]; PO) was 4 h and the “time of peak effect on foot slips” value (rats [3]; PO) was 2 h. For the same molecule, the “lowest dose increasing number of foot slips” value (rats [3]; PO, 30, 100 and 300 mg/kg tested, dose dependent) was 100 mg/kg, the “rats that fell off the beam” value (rats [3]; PO, 2 hours post dose) was 25% and the “rats that fell off the beam” value (rats [3]; PO, 3 hours post dose) was 25%. For the same molecule, the “number of foot slips” value (rats [3]; PO, dose not stated, 1 hour post dose, water treated 0.6±0.4) was 1.5±0.5 and the “number of foot slips (peak effect)” value (rats [3]; PO, dose not stated, 2 hours post dose, vehicle 0.2±0.2, p<0.01) was 2.9±0.5.
In the case of `c1ccc(C2(N3CCCCC3)CCCCC2)cc1` [PCP, phencyclidine], the “adverse events in humans” value [1] is given as “induce ataxia”, the observed signs (rats [2]; 10 mg/kg ip) is given as “signs of ataxia” and the “vertical activity (rearing)” value (rats [2]; 10 mg/kg, standard protocol for drug-induced decrease in movement, vehicle 186±17, p<0.01, data not shown) is given as 30±9. The “total activity (vertical+horizontal) vs vehicle-treated group” value (rats [2]; [4]) was “did not change significantly”, the vertical movement (rats [2]; [4]) was “only the lower dose significantly increased the vertical movement” and the horizontal activity (rats [2]; 1 and 10 mg/kg ip, 1 hr post injection, p<0.05) was “increased the horizontal activity in a dose dependent manner”. The “number of foot slips, effect” value (rats [3]; 1 mg/kg ip, 2 hours post dose, p<0.05) was “slight but significant increase”, the “rodents that could not be placed on the beam (lack of paw coordination)” value (rats [3]; 10 mg/kg ip, 30 min post dose) was 100% and the “rodents that could not be placed on the beam (lack of paw coordination)” value (rats [3]; 10 mg/kg ip, 1 hour post dose) was 100%. The “animals that did cross the beam” value (rats [3]; 10 mg/kg ip, 2 hours post dose) was 80%, the “number of foot slips” value (rats [3]; 10 mg/kg ip, 2 hours post dose, animals that crossed) was ≥ 5 and the “time taken to cross the beam vs controls” value (rats [3]; 10 mg/kg ip, 2 hours post dose, p<0.01) was “significantly different from controls”. The recovery (rats [3]; 10 mg/kg ip, 4 hrs post dose) was “almost all rats recovered”, the “time taken to cross the beam, effect across doses” value (rats [3]; 0.1-1-10 mg/kg ip) was “increased the time taken to cross the beam at the higher dose only” and the “number of foot slips, effect” value (rats [3]; lower dose (0.1 mg/kg ip)) was “no effect”.
